Assay results as given in patent publication US20240316047A1, “INHIBITORS OF RNA HELICASE DHX9 AND USES THEREOF” (ACCENT THERAPEUTICS, INC., priority 2022, published 2024).

Target: Human recombinant DHX9 protein (Homo sapiens (Human), UniProt Q08211)
Experiment: DHX9 ATPase assay (ADP-Glo)
Format: biochemical
Conditions: for IC50: read-out: DHX9 Biochemical Inflection Point

Sequence of Human recombinant DHX9 protein (Q08211 whole entry): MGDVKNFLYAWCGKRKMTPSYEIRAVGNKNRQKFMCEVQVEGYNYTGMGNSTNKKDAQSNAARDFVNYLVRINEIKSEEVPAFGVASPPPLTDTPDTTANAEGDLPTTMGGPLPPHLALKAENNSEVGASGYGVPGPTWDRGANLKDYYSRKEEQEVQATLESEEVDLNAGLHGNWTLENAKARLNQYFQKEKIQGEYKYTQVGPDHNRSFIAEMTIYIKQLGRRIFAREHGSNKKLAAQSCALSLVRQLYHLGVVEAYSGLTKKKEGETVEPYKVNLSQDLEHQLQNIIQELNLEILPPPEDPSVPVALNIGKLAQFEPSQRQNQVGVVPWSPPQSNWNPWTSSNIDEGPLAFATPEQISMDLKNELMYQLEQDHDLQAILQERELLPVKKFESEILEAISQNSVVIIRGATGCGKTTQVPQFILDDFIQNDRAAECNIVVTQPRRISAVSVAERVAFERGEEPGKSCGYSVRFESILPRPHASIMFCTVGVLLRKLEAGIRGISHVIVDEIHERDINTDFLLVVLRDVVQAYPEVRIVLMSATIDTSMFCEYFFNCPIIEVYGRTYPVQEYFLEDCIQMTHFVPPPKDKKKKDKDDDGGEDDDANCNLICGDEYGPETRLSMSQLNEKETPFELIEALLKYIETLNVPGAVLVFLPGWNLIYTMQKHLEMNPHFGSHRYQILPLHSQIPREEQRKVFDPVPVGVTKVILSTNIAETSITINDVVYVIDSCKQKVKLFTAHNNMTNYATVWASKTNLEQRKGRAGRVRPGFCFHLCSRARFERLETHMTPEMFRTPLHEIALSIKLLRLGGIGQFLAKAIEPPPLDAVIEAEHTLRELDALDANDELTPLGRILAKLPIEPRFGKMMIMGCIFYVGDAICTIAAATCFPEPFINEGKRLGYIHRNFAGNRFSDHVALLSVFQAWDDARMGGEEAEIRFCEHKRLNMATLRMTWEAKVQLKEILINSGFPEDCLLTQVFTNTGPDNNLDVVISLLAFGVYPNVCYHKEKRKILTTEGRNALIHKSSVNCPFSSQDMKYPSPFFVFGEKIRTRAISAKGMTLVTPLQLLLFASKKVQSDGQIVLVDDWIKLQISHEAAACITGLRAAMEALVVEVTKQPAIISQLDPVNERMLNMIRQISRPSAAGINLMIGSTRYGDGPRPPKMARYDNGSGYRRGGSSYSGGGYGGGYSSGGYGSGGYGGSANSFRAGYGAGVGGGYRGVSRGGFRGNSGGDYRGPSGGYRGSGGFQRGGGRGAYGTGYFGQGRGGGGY

Compound | DHX9 Biochemical Max Inhibition | IC50 [µM]
Cn1cc(C(=O)Nc2cc(Cl)cc(NS(C)(=O)=O)c2)cc1-c1ncc(OC(C)(C)C)cc1F [Example 557] | 59.8 | 0.0371
Cc1sc(C(=O)Nc2cc(Cl)cc(NS(C)(=O)=O)c2)cc1-c1ncc(N(C)S(C)(=O)=O)cn1 [Example 720] | 72.6 | 0.0252
CS(=O)(=O)Nc1cc(Cl)cc(NC(=O)c2cc(-c3ccc(F)cn3)n(CCO)c2)c1 [Example 689] | 85 | 0.0036
COC1CCN(c2ccc(-c3cc(C(=O)Nc4cc(Cl)cc(NS(C)(=O)=O)c4)cn3C)nc2)CC1 [Example 515, N-(3-chloro-5-methanesulfonamidophenyl)-5-[5-(4-methoxypiperidin-1-yl)pyridin-2-yl]-1-methyl-1H-pyrrole-3-carboxamide] | 73.9 | 0.0016
CS(=O)(=O)Nc1cc(Cl)cc(NC(=O)c2cnn(-c3c(F)cccc3OCc3cncc(F)c3)c2)c1 [Example 718] | 72.7 | 0.0157
CCn1cc(C(=O)Nc2cc(Cl)cc(NS(C)(=O)=O)c2)cc1-c1ccccc1 [Example 79, N-(3-chloro-5-(methylsulfonamido)phenyl)-1-ethyl-5-phenyl-1H-pyrrole-3-carboxamide] | 67.8% | 0.146
COc1cccc2cc(C(=O)Nc3cc(Cl)cc(NS(C)(=O)=O)c3)sc12 [Example 303] | 57.2% | 4.02
Cc1cc(C(=O)Nc2cc(Cl)cc(NS(C)(=O)=O)c2)cn1C1CCCC1 [Example 282] | 72.4% | 0.0964
Cc1sc(C(=O)Nc2cc(Cl)cc(NS(C)(=O)=O)c2)cc1N1CCCC1=O [Example 434] | 67.1 | 0.0511
Cc1cccnc1-c1csc(C(=O)Nc2cc(Cl)cc(N(C)S(C)(=O)=O)c2)c1 [Example 374] | 60% | 0.579
CS(=O)(=O)Nc1cc(Cl)cc(NC(=O)c2cc(N3CCOC3=O)cs2)c1 [Example 433] | 71.2 | 0.0241
CS(=O)(=O)Nc1cc(Cl)cc(NC(=O)c2cnn(CCCO)c2)c1 [Example 126, N-(3-chloro-5-(methylsulfonamido)phenyl)-1-(3-hydroxypropyl)-1H-pyrazole-4-carboxamide] | 64.5% | 0.182
CN(C)C(=O)c1sc(C(=O)Nc2cc(Cl)cc(NS(C)(=O)=O)c2)cc1-c1ncccc1OCc1ccccc1 [Example 213] | 71.6% | 0.0164
CS(=O)(=O)Nc1cc(Cl)cc(NC(=O)c2cnn([C@@H]3CCCC[C@H]3O)c2)c1 (relative stereo) [Example 150, N-(3-chloro-5-(methylsulfonamido)phenyl)-1-(trans-2-hydroxycyclohexyl)-1H-pyrazole-4-carboxamide] | 65.9% | –
CS(=O)(=O)Nc1cc(Cl)cc(NC(=O)c2cnn(-c3ncccc3OCc3ccncc3)c2)c1 [Example 64] | 61.8% | 0.0599
CN1CC2(CC(n3cc(C(=O)Nc4cc(Cl)cc(NS(C)(=O)=O)c4)cn3)C2)C1 [Example 311] | 77.7% | 0.0385
COc1cnc(-c2cc(C(=O)Nc3cc(Cl)cc(NS(C)(=O)=O)c3)cn2C)c(F)c1 [Example 454] | 82.9 | 0.005
CCS(=O)(=O)Nc1cc(Cl)cc(NC(=O)c2cc(-c3ncccn3)n(C)c2)c1 [Example 173, N-(3-chloro-5-(ethylsulfonamido)phenyl)-1-methyl-5-(pyrimidin-2-yl)-1H-pyrrole-3-carboxamide] | 61.3% | 0.0086
CC(=O)N1CC2(CC(n3cc(C(=O)Nc4cc(Cl)cc(NS(C)(=O)=O)c4)cn3)C2)C1 [Example 313] | 63.6% | 0.147
CCOc1cnc(-c2cc(C(=O)Nc3cc(Cl)cc(NS(C)(=O)=O)c3)cn2C)c(F)c1 [Example 453] | 90.7 | 0.0122
CCS(=O)(=O)Nc1cc(Cl)cc(NC(=O)c2cc(-c3ncc(F)cn3)c(C)s2)c1 [Example 344] | 74.1% | 0.021
Cc1cccnc1-c1csc(C(=O)Nc2cc(Br)cc(NS(C)(=O)=O)c2)c1 [Example 33] | 61.7% | 0.0048
Cc1sc(C(=O)Nc2cc(Cl)cc(NS(C)(=O)=O)c2)cc1-c1ncc(OC2CN(C)C2)cc1F [Example 635] | 68.5 | 0.002
CS(=O)(=O)Nc1cc(Cl)cc(NC(=O)c2cnn(-c3ccccc3Oc3ncccn3)c2)c1 [Example 263] | 63.8% | 0.17
CCS(=O)(=O)Nc1cc(Cl)cc(NC(=O)c2cc(-c3ncc(F)cc3C)cs2)c1 [Example 226] | 73.6% | 0.0084
Cn1cc(C(=O)Nc2cc(Cl)cc(NS(C)(=O)=O)c2)cc1-c1cc(N2CC(F)(F)C2)ccn1 [Example 552] | 89.7 | 0.0166
Cc1cc(C(=O)Nc2cc(Cl)cc(NS(C)(=O)=O)c2)cn1-c1ccc(N2CCN(C)C(=O)C2)cn1 [Example 94] | 72.4% | 0.0018

Compound | DHX9 Biochemical Max Inhibition | IC50 [µM]
Cc1sc(C(=O)Nc2cc(Cl)cc(NS(C)(=O)=O)c2)cc1-c1ncc(OC(C)(C)C)cc1F [Example 381] | 67.4% | –
Cc1cc(C(=O)Nc2cc(Cl)cc(NS(C)(=O)=O)c2)cn1-c1ncc(C(F)(F)F)cn1 [Example 426] | 74.7 | 0.0585
CS(=O)(=O)Nc1cc(Cl)cc(NC(=O)c2cnn(C3CCOC3)c2)c1 (centres unmarked) [Example 182] | 73.4% | 0.181
Cn1cc(C(=O)Nc2cc(Cl)cc(NS(C)(=O)=O)c2)cc1-c1ncc(N2CCC3(CC2)CC3(F)F)cc1F [Example 518] | 56.7 | 0.153
CS(=O)(=O)Nc1cc(Cl)cc(NC(=O)c2cc(-c3ccccc3)c[nH]2)c1 [Example 8] | 54.4% | 0.395
CS(=O)(=O)Nc1cc(Cl)cc(NC(=O)c2cc3c(F)cccc3s2)c1 [Example 296] | 69.9% | 0.125
CS(=O)(=O)Nc1cc(Cl)cc(NC(=O)c2cnn(-c3ncc(N4CC5(COC5)C4)cc3O)c2)c1 [Example 691] | 68.5 | 0.0359
Cc1cccnc1-c1cc(C(=O)Nc2cc(F)cc(NS(C)(=O)=O)c2)sc1C [Example 333] | 78.1% | 0.0351
CS(=O)(=O)Nc1cc(Cl)cc(NC(=O)c2cnn(-c3ncc(N4CC5(COC5)C4)cc3OCc3cc(F)cc(F)c3)c2)c1 [Example 258] | 72.9% | 0.0047
COC(=O)N1CCN(c2cnc(-c3cc(C(=O)Nc4cc(Cl)cc(NS(C)(=O)=O)c4)sc3C)c(C)c2)CC1 [Example 601] | 72.2 | 0.0212
Cn1cc(C(=O)Nc2cc(Cl)cc(NS(C)(=O)=O)c2)cc1-c1ncc(N2CC(F)C2)cc1F [Example 466] | 82.2 | 0.0111
Cn1cc(C(=O)Nc2cc(Cl)cc(NS(C)(=O)=O)c2)cc1-c1ncc(N2CCC(F)(F)C2)cc1F [Example 525] | 63.3 | 0.0433
CS(=O)(=O)Nc1cc(Cl)cc(NC(=O)c2cnn(-c3ccccc3-c3cncc(F)c3)c2)c1 [Example 257] | 66.5% | 0.207
Cc1sc(C(=O)Nc2cc(Cl)cc(NS(C)(=O)=O)c2)cc1-c1cn(-c2ccccc2)nn1 [Example 236] | 68.9% | 0.0521
CCc1cn2cc(C(=O)Nc3cc(Cl)cc(NS(C)(=O)=O)c3)ccc2n1 [Example 132] | 55.1% | 0.295
Cc1sc(C(=O)Nc2cc(Cl)cc(NS(C)(=O)=O)c2)cc1-c1ncc(N2CC(F)(F)C2)cc1OC(C)C [Example 534] | 78.3 | 0.0199
CC(C)(C)OC(=O)N1CCC(n2cc(C(=O)Nc3cc(Cl)cc(NS(C)(=O)=O)c3)cn2)CC1 [Example 136] | 59.6% | –
CS(=O)(=O)Nc1cc(Cl)cc(NC(=O)c2cnn(-c3ncccc3S(C)(=O)=O)c2)c1 [Example 199] | 73.4% | 0.0844
Cc1cc(C(=O)Nc2cc(Cl)cc(NS(C)(=O)=O)c2)cn1-c1ncc(F)cn1 [Example 207] | 70% | 0.0152
CS(=O)(=O)Nc1cc(Cl)cc(NC(=O)c2cc(-c3ccccc3)cs2)c1 [Example 75] | 55.5% | –
CS(=O)(=O)Nc1cc(Cl)cc(NC(=O)c2cc3ccncc3s2)c1 [Example 230] | 65.9% | 0.093
CS(=O)(=O)Nc1cc(Cl)cc(NC(=O)c2cnn(-c3ncccc3OCc3ccccc3)c2)c1 [Example 68] | 68.7% | 0.0238
CC(O)c1cc(C(=O)Nc2cc(Cl)cc(NS(C)(=O)=O)c2)cn1-c1ccccn1 (centres unmarked) [Example 287] | 82.6% | 0.0191
Cc1cccnc1-c1csc(C(=O)Nc2cc(Br)cc(NS(C)(=N)=O)c2)c1 (centres unmarked) [Example 122] | 67.7% | 0.0288
Cc1cc(C(=O)Nc2cc(Cl)cc(NS(C)(=O)=O)c2)cn1-c1ncc(N2CC(F)(F)C2)cc1C#N [Example 415] | 99.9 | 0.0154
CS(=O)(=O)Nc1cc(Cl)cc(NC(=O)c2cnn([C@H]3CCC[C@H](O)C3)c2)c1 (single isomer, unassigned) [Example 152a] | 63.2% | 0.138
CS(=O)(=O)Nc1cc(Br)cc(NC(=O)c2ccc3c(c2)[nH]c(=O)n3Cc2ccccc2)c1 [Example 99, 1-benzyl-N-(3-bromo-5-(methylsulfonamido)phenyl)-2-oxo-2,3-dihydro-1H-benzo[d]imidazole-5-carboxamide] | 50.9% | 0.298
